Experimental findings from US10517889B2, “Modulators of SMAD7 expression” (Ionis Pharmaceuticals, Inc., priority 2017, dated 2019) are described below.

Strand notation (5' to 3'): a small letter for the sugar, then the base; units joined by * are phosphorothioate-linked, units joined directly phosphodiester-linked; [ ] holds rarer units or linkages, { } end groups; capitals alone tell only the bases. k = constrained ethyl (cEt); [5mC] = 5-methylcytosine; d = 2'-deoxy (DNA)

The subject of one series is human SMAD7 mRNA. Briefly: Antisense inhibition of human SMAD7 mRNA expression in Hep3B cells by 3-10-3 cEt gapmers, 10,000 nM, electroporation (Example 2). Format: cell-based. The note with it: Hep3B cells, electroporation with 10,000 nM antisense oligonucleotide, approximately 24 hours, RTS5062, percent inhibition of SMAD7 mRNA relative to untreated control cells. In short, it runs like this:
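Percent inhibition of SMAD7 mRNA, relative to untreated cells, after ~24 h exposure of electroporated Hep3B cells to 10,000 nM cEt gapmer; levels by qRT-PCR, corrected for total RNA.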
For orientation: % Inhibition means the share of the control response that was lost under treatment. As for “799702 (antisense k[5mC]*kA*kT*d[5mC]*dA*d[5mC]*d[5mC]*dA*d[5mC]*dT*d[5mC]*dT*dA*k[5mC]*kA*kG) [compound 799702]”, the “% Inhibition” value came out at 43%.
Same read-out and setting: under “799703 (antisense k[5mC]*k[5mC]*kA*dA*dT*dG*dG*d[5mC]*dA*dT*dT*dG*dA*kA*kT*kA) [compound 799703]” stands 45%.
On the same count and under the same terms, under “799704 (antisense kA*k[5mC]*k[5mC]*dA*dA*dT*dG*dG*d[5mC]*dA*dT*dT*dG*kA*kA*kT) [compound 799704]” stands 12%; under “799705 (antisense kA*kA*k[5mC]*dT*dT*dA*dA*dA*dA*dT*dG*dT*dG*k[5mC]*k[5mC]*kA) [compound 799705]”, 26%.
“799706 (antisense k[5mC]*kT*kT*dG*dT*dG*dG*dT*dA*dA*dA*dA*dT*kA*k[5mC]*kA) [compound 799706]”: the “% Inhibition” value is 47%.
The same measure, in the same setting: in the case of “799707 (antisense kA*kA*kA*d[5mC]*dT*dT*dG*dT*dG*dG*dT*dA*dA*kA*kA*kT) [compound 799707]” it was 38%; in that of “799710 (antisense kG*kT*k[5mC]*dA*dA*dA*d[5mC]*dT*dT*dG*dT*dG*dG*kT*kA*kA) [compound 799710]”, 48%; in that of “799723 (antisense kA*kG*k[5mC]*d[5mC]*dA*dA*d[5mC]*d[5mC]*d[5mC]*dT*dG*dG*d[5mC]*kA*k[5mC]*k[5mC]) [compound 799723]”, 0%.
On the same count and under the same terms, under “799724 (antisense kA*kA*k[5mC]*dT*dT*dG*dG*dG*d[5mC]*dA*dA*dG*dG*kA*k[5mC]*kA) [compound 799724]” stands 24%; under “799725 (antisense kG*kG*k[5mC]*d[5mC]*dA*d[5mC]*dT*dG*d[5mC]*dA*dG*d[5mC]*d[5mC]*k[5mC]*kT*kA) [compound 799725]”, 0%; under “799726 (antisense kG*kT*kA*dT*d[5mC]*d[5mC]*dT*dT*dT*d[5mC]*dA*d[5mC]*dG*kA*kG*kG) [compound 799726]”, 49%.
On to “799727 (antisense kT*kG*kA*d[5mC]*dA*dG*dT*dA*dG*dG*d[5mC]*dA*dG*kG*k[5mC]*kA) [compound 799727]”, for which the “% Inhibition” value is 22%.
With “799728 (antisense k[5mC]*kG*kG*dA*dG*dA*dG*dG*dA*dA*dG*d[5mC]*d[5mC]*kT*k[5mC]*kT) [compound 799728]”, the “% Inhibition” value was 37%.
Take “799729 (antisense kT*kA*kT*d[5mC]*dT*dT*d[5mC]*d[5mC]*d[5mC]*dG*d[5mC]*dT*dG*kA*kA*kA) [compound 799729]”: the “% Inhibition” value is 52%.
The same measure, in the same setting: in the case of “799730 (antisense kT*kA*kA*dA*dT*dT*dG*dA*dG*dA*dA*d[5mC]*dT*kG*kT*kG) [compound 799730]” it was 60%; in that of “799741 (antisense kA*kG*kT*dT*dA*dT*d[5mC]*dA*d[5mC]*d[5mC]*d[5mC]*dT*dG*kT*kT*kT) [compound 799741]”, 32%.
Same read-out and setting: in the case of “799742 (antisense kA*kT*kA*dT*dT*dT*d[5mC]*d[5mC]*dT*dG*dT*dT*dA*kA*k[5mC]*kT) [compound 799742]” it was 23%; in that of “799744 (antisense kA*kA*kA*dG*dA*dA*dA*dA*dT*dG*dG*d[5mC]*d[5mC]*kT*kA*k[5mC]) [compound 799744]”, 1%.
Turning to “799745 (antisense kG*kG*k[5mC]*dA*dG*dT*dT*dA*dA*d[5mC]*dA*dT*dT*kT*k[5mC]*kA) [compound 799745]”, the “% Inhibition” value is reported as 43%.
Still for that read-out and setting: in the case of “799746 (antisense kA*kA*kT*dG*dG*dG*dA*dA*dA*dT*dA*dA*dG*kG*k[5mC]*kG) [compound 799746]” it was 59%.
Same read-out and setting: under “799747 (antisense kA*kA*kA*dT*dG*dG*dG*dA*dA*dA*dT*dA*dA*kG*kG*k[5mC]) [compound 799747]” stands 43%; under “799748 (antisense kG*k[5mC]*kT*dG*dA*dA*dA*dA*dA*dG*dT*d[5mC]*dA*kT*kG*kA) [compound 799748]”, 51%; under “799749 (antisense kT*kG*k[5mC]*dT*dT*dG*dG*d[5mC]*d[5mC]*dT*dT*dA*d[5mC]*k[5mC]*kA*kT) [compound 799749]”, 17%.
Regarding “799750 (antisense kA*kG*k[5mC]*d[5mC]*dA*dA*dG*dA*dG*d[5mC]*dT*dG*d[5mC]*kT*kT*kG) [compound 799750]”, the “% Inhibition” value stood at 0%.

The same series, now with this note: Hep3B cells, electroporation, 10,000 nM antisense oligonucleotide, approximately 24 hours, RTS5062, relative to untreated control cells.
As for “799697 (antisense kA*kA*kT*dA*dG*dT*dT*dT*dT*d[5mC]*dT*d[5mC]*dT*k[5mC]*kA*kA) [compound 799697]”, the “% inhibition of SMAD7 mRNA expression” value is 59%.
On the same count and under the same terms, in the case of “799698 (antisense kT*kA*kA*dT*dA*dG*dT*dT*dT*dT*d[5mC]*dT*d[5mC]*kT*k[5mC]*kA) [compound 799698]” it was 33%; in that of “799699 (antisense k[5mC]*kA*kA*dA*dA*d[5mC]*dA*dG*dT*dG*dG*dA*d[5mC]*k[5mC]*kA*kT) [compound 799699]”, 57%; in that of “799700 (antisense k[5mC]*kA*kT*dG*dA*d[5mC]*dA*dG*d[5mC]*dA*dA*dA*dG*k[5mC]*kA*kA) [compound 799700]”, 49%.
On the same count and under the same terms, under “799701 (antisense k[5mC]*kT*kA*d[5mC]*dA*dG*dT*dT*d[5mC]*d[5mC]*dA*dG*dA*kA*k[5mC]*kA) [compound 799701]” stands 46%.
Still for that read-out and setting: in the case of “799713 (antisense k[5mC]*kA*k[5mC]*dA*dA*dT*d[5mC]*dA*d[5mC]*dT*dG*dT*dT*k[5mC]*k[5mC]*kT) [compound 799713]” it was 0%; in that of “799714 (antisense k[5mC]*kA*k[5mC]*d[5mC]*dA*dA*dA*dA*d[5mC]*dA*dA*dG*dT*kG*kT*k[5mC]) [compound 799714]”, 33%; in that of “799715 (antisense k[5mC]*k[5mC]*kT*d[5mC]*dA*dG*dG*dG*d[5mC]*dT*dG*d[5mC]*d[5mC]*kA*k[5mC]*k[5mC]) [compound 799715]”, 32%.
As for “799716 (antisense kG*kG*k[5mC]*dT*dA*d[5mC]*d[5mC]*dA*dG*d[5mC]*d[5mC]*dT*dT*kG*k[5mC]*kT) [compound 799716]”, the “% inhibition of SMAD7 mRNA expression” value was 32%.
On to “799717 (antisense kG*k[5mC]*kA*dG*dG*d[5mC]*dT*dA*d[5mC]*d[5mC]*dA*dG*d[5mC]*k[5mC]*kT*kT) [compound 799717]”, for which the “% inhibition of SMAD7 mRNA expression” value is listed as 0%.
For “799719 (antisense k[5mC]*k[5mC]*kT*dT*dT*d[5mC]*dT*dA*d[5mC]*dT*dA*dG*dA*kA*kA*kA) [compound 799719]”, the “% inhibition of SMAD7 mRNA expression” value amounted to 19%.
As for “799720 (antisense kA*k[5mC]*kA*d[5mC]*dA*d[5mC]*dA*dG*d[5mC]*dA*dG*dA*dA*kG*kG*k[5mC]) [compound 799720]”, the “% inhibition of SMAD7 mRNA expression” value worked out at 40%.
On the same count and under the same terms, under “799721 (antisense kG*kT*kA*dA*d[5mC]*dA*d[5mC]*dA*d[5mC]*dA*dG*d[5mC]*dA*kG*kA*kA) [compound 799721]” stands 42%; under “799731 (antisense k[5mC]*kT*kT*dT*d[5mC]*dT*dT*dG*dG*dT*dG*dT*dG*kT*kT*kA) [compound 799731]”, 37%.
Turning to “799732 (antisense kG*kG*kG*dA*dT*d[5mC]*dA*dG*dG*dT*dG*dA*dG*kT*kG*kT) [compound 799732]”, the “% inhibition of SMAD7 mRNA expression” value is 48%.
As to “799733 (antisense kG*kT*kT*dT*dA*dG*dG*dT*dA*dG*dA*dG*dT*kG*kG*k[5mC]) [compound 799733]”, the “% inhibition of SMAD7 mRNA expression” value is recorded as 27%.
Take “799735 (antisense kT*k[5mC]*k[5mC]*dA*d[5mC]*dG*dG*dG*dA*dG*dT*dG*dG*kA*kA*kG) [compound 799735]”: the “% inhibition of SMAD7 mRNA expression” value was 0%.
“799736 (antisense kT*kT*k[5mC]*dT*dA*d[5mC]*dA*d[5mC]*d[5mC]*dT*dT*dT*dT*kA*kA*kG) [compound 799736]”: the “% inhibition of SMAD7 mRNA expression” value worked out at 56%.
For the substance “799737 (antisense k[5mC]*kT*kT*dA*dG*dA*dG*dT*dA*dT*dA*dA*dA*kT*kA*k[5mC]) [compound 799737]”, the “% inhibition of SMAD7 mRNA expression” value was 5%.
“799738 (antisense kT*k[5mC]*kA*dA*dA*dA*dA*dA*dT*dG*dT*d[5mC]*d[5mC]*k[5mC]*k[5mC]*kA) [compound 799738]”: the “% inhibition of SMAD7 mRNA expression” value came to 50%.
With “799739 (antisense k[5mC]*kA*k[5mC]*d[5mC]*d[5mC]*d[5mC]*dT*dA*dT*d[5mC]*dA*dA*dA*kA*kA*kA) [compound 799739]”, the “% inhibition of SMAD7 mRNA expression” value was found to be 0%.
The same measure, in the same setting: under “799740 (antisense kT*kT*kA*dA*dA*dT*dA*dA*d[5mC]*dT*dG*dT*d[5mC]*k[5mC]*kT*k[5mC]) [compound 799740]” stands 48%.
Consider “799752 (antisense kT*kT*kA*dA*dA*dA*d[5mC]*dT*dG*dA*dG*d[5mC]*dT*kA*kA*kT) [compound 799752]”, for which the “% inhibition of SMAD7 mRNA expression” value was 0%.
On the same count and under the same terms, under “799754 (antisense kG*kG*k[5mC]*dT*dA*dA*dG*dT*dG*d[5mC]*d[5mC]*dA*dG*kG*kT*kG) [compound 799754]” stands 0%; under “799756 (antisense k[5mC]*kA*kG*dG*dG*d[5mC]*dA*dG*d[5mC]*dT*d[5mC]*d[5mC]*dG*kA*kG*kA) [compound 799756]”, 44%.
In the case of “799757 (antisense k[5mC]*k[5mC]*kG*dT*dT*dA*d[5mC]*dT*dG*dG*dA*d[5mC]*dA*k[5mC]*kA*kG) [compound 799757]”, the “% inhibition of SMAD7 mRNA expression” value is 41%.
